SMILES strings stand for the structures.

For the first experiment, the target named is T1, ERα (Homo sapiens, UniProt P03372).
T1 construct: host or cells: MCF7 cells
T1 sequence (P03372 1-595): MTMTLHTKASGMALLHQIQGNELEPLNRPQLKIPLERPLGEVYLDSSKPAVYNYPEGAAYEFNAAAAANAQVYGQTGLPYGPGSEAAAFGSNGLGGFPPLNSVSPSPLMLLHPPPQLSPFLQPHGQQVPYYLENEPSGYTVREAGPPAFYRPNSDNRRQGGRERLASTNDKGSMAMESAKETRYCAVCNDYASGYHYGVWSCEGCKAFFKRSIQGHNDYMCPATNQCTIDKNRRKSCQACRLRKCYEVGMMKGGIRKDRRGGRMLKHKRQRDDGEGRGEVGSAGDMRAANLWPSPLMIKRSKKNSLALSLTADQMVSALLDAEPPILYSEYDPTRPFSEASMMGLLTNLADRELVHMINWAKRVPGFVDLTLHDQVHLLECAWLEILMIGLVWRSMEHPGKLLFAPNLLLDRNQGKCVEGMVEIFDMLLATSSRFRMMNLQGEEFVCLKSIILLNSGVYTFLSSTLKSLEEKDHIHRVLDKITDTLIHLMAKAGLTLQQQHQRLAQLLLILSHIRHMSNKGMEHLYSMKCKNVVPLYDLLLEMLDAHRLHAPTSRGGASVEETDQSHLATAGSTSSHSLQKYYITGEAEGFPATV
The experiment in a line: Estrogen receptor degradation activity: breast cancer cell ERα in cell western assay (MCF7 cells). The class given is cell-based. The note with it: 4 hours, final concentrations ranging from 0.3-0.0000018 μM, relative to fulvestrant 0.1 μM positive control. As to the method:
Test: Estrogen Receptor Degradation Activity
Said test involves measuring the in vitro degradation activity of the compounds of the invention.
The measurements of the degradation activities were made using a breast cancer cell ERα in cell western assay as described hereunder.
MCF7 cells (ATCC) were seeded in 384 wells microplate (collagen coated) at a concentration of 10000 cells/30 μL, per well in red phenol free MEM alpha medium (invitrogen) containing 5% charcoal dextran striped FBS. The following day, 9 points serial 1:5 dilution of each compound was added to the cells in 2.5 μL at final concentrations ranging either from 3-0.000018 μM (column «% Degradation at 3 μM in table 2) or from 0.3-0.0000018 μM (column «% Degradation at 0.3 μM in table 2), or 0.1 μM for fulvestrant (using as positive control). At 4 hours post compound addition the cells were fixed by adding 25 μL of formalin (final concentration 5% formalin containing 0.1% triton) for 10 minutes at room temperature and then washed twice with PBS. Then, 50 μL of LI-COR blocking buffer containing 0.1% Triton was added to plate for 30 minutes at room temperature. LI-COR blocking buffer was removed and cells were incubated overnight at cold room with 50 μL anti-ER rabbit monoclonal antibody (Thermo scientific MA1-39540) diluted at 1:1000 in LI-COR blocking buffer containing 0.1% tween-20. Wells which were treated with blocking buffer but no antibody were used as background control. Wells were washed twice with PBS (0.1% tween-20) and incubated at 37° C. for 60 minutes in LI-COR (0.1% tween-20) containing goat anti-rabbit antibody Alexa 488 (1:1000) and Syto-64 a DNA dye ([…]). Cells were then washed 3 times in PBS and scanned in ACUMEN explorer (TTP-Labtech). Integrated intensities in the green fluorescence and red fluorescence were measured to determine the levels of ERα and DNA respectively.
Consider `NC(=O)c1ccc(-c2ccc3c(c2)CCCC(c2ccc(Cl)cc2Cl)=C3c2ccc(O[C@H]3CCN(CCCF)C3)cc2)cc1` [Example 81, (S)-4-(8-(2,4-dichlorophenyl)-9-(4-((1-(3-fluoropropyl)pyrrolidin-3-yl)oxy)phenyl)-6,7-dihydro-5H-benzo[7]annulen-3-yl)benzamide], for which the “% Degradation At 0.3 μM” value stood at 67%. Still for that read-out and setting: for `NC(=O)C(=O)Nc1ccc2c(c1)CCCC(c1ccc(Cl)cc1Cl)=C2c1ccc(O[C@H]2CCN(CCCF)C2)cc1` [Example 77, (S)—N1-(8-(2,4-dichlorophenyl)-9-(4-((1-(3-fluoropropyl)pyrrolidin-3-yl)oxy)phenyl)-6,7-dihydro-5H-benzo[7]annulen-3-yl)oxalamide] the value was 55%; for `CCOC(=O)C(=O)Nc1ccc2c(c1)CCCC(c1ccc(Cl)cc1Cl)=C2c1ccc(O[C@H]2CCN(CCCF)C2)cc1` [Example 76, ethyl (S)-2-((8-(2,4-dichlorophenyl)-9-(4-((1-(3-fluoropropyl)pyrrolidin-3-yl)oxy)phenyl)-6,7-dihydro-5H-benzo[7]annulen-3-yl)amino)-2-oxoacetate], 75%.

The same experiment, now with this note: 4 hours, final concentrations ranging from 3-0.000018 μM, relative to fulvestrant 0.1 μM positive control.
`O=c1c(O)c(Nc2ccc3c(c2)CCCC(c2ccc(Cl)cc2Cl)=C3c2ccc(O[C@H]3CCN(CCCF)C3)cc2)c1=O` [Example 36, (S)-3-((8-(2,4-dichlorophenyl)-9-(4-((1-(3-fluoropropyl)pyrrolidin-3-yl)oxy)phenyl)-6,7-dihydro-5H-benzo[7]annulen-3-yl)amino)-4-hydroxycyclobut-3-ene-1,2-dione]: the “% Degradation At 3 μM” value amounted to 93%.

As for `FCCCN1CC[C@H](Oc2ccc(C3=C(c4ccc(Cl)cc4Cl)CCCc4cc(-c5cc[nH]n5)ccc43)cc2)C1` [Example 51, (S)-3-(8-(2,4-dichlorophenyl)-9-(4-((1-(3-fluoropropyl)pyrrolidin-3-yl)oxy)phenyl)-6,7-dihydro-5H-benzo[7]annulen-3-yl)-1H-pyrazole], the “% Degradation At 3 μM” value amounted to 81%. On the same count and under the same terms, the value for `FCCCN1CC[C@H](Oc2ccc(C3=C(c4ccc(Cl)cc4Cl)CCCc4cc(-c5cn[nH]c5)ccc43)cc2)C1` [Example 21, (S)-4-(8-(2,4-dichlorophenyl)-9-(4-((1-(3-fluoropropyl)pyrrolidin-3-yl)oxy)phenyl)-6,7-dihydro-5H-benzo[7]annulen-3-yl)-1H-pyrazole] was 78%; that for `FCCCN1CC[C@H](Oc2ccc(C3=C(c4ccc(Cl)cc4Cl)CCCc4cc(-c5nnco5)ccc43)cc2)C1` [Example 7, (S)-2-(8-(2,4-dichlorophenyl)-9-(4-((1-(3-fluoropropyl)pyrrolidin-3-yl)oxy)phenyl)-6,7-dihydro-5H-benzo[7]annulen-3-yl)-1,3,4-oxadiazole] was 86%.

Take `COC(=O)c1cccc(-c2ccc3c(c2)CCCC(c2ccc(Cl)cc2Cl)=C3c2ccc(O[C@H]3CCN(CCCF)C3)cc2)c1` [Example 57, Methyl (S)-3-(8-(2,4-dichlorophenyl)-9-(4-((1-(3-fluoropropyl)pyrrolidin-3-yl)oxy)phenyl)-6,7-dihydro-5H-benzo[7]annulen-3-yl)benzoate]: the “% Degradation At 3 μM” value is recorded as 87%. Still for that read-out and setting: the value for `O=c1[nH]c(-c2ccc3c(c2)CCCC(c2ccc(Cl)cc2Cl)=C3c2ccc(O[C@H]3CCN(CCCF)C3)cc2)no1` [Example 27, (S)-3-(8-(2,4-dichlorophenyl)-9-(4-((1-(3-fluoropropyl)pyrrolidin-3-yl)oxy)phenyl)-6,7-dihydro-5H-benzo[7]annulen-3-yl)-1,2,4-oxadiazol-5(4H)-one] was 71%; that for `OC(c1ccc2c(c1)CCCC(c1ccc(Cl)cc1Cl)=C2c1ccc(O[C@H]2CCN(CCCF)C2)cc1)C(F)F` (stereo partly drawn) [Example 5, 1-(8-(2,4-dichlorophenyl)-9-(4-(((S)-1-(3-fluoropropyl)pyrrolidin-3-yl)oxy)phenyl)-6,7-dihydro-5H-benzo[7]annulen-3-yl)-2,2-difluoroethan-1-ol] was 93%. For `COC(=O)c1ccc(-c2ccc3c(c2)CCCC(c2ccc(Cl)cc2Cl)=C3c2ccc(O[C@H]3CCN(CCCF)C3)cc2)cc1` [Example 56, Methyl (S)-4-(8-(2,4-dichlorophenyl)-9-(4-((1-(3-fluoropropyl)pyrrolidin-3-yl)oxy)phenyl)-6,7-dihydro-5H-benzo[7]annulen-3-yl)benzoate], the “% Degradation At 3 μM” value was 89%. On the same count and under the same terms, the value for `N=C(NO)c1ccc2c(c1)CCCC(c1ccc(Cl)cc1Cl)=C2c1ccc(O[C@H]2CCN(CCCF)C2)cc1` [Example 26, (S)-8-(2,4-dichlorophenyl)-9-(4-((1-(3-fluoropropyl)pyrrolidin-3-yl)oxy)phenyl)-N-hydroxy-6,7-dihydro-5H-benzo[7]annulene-3-carboximidamide] was 90%. Regarding `O=C(O)c1cccc(-c2ccc3c(c2)CCCC(c2ccc(Cl)cc2Cl)=C3c2ccc(O[C@H]3CCN(CCCF)C3)cc2)c1` [Example 55, (S)-3-(8-(2,4-dichlorophenyl)-9-(4-((1-(3-fluoropropyl)pyrrolidin-3-yl)oxy)phenyl)-6,7-dihydro-5H-benzo[7]annulen-3-yl)benzoic acid], the “% Degradation At 3 μM” value stood at 84%. The same measure, in the same setting: for `FCCCN1CC[C@H](Oc2ccc(C3=C(c4ccc(Cl)cc4Cl)CCCc4cc(-c5nncs5)ccc43)cc2)C1` [Example 9, (S)-2-(8-(2,4-dichlorophenyl)-9-(4-((1-(3-fluoropropyl)pyrrolidin-3-yl)oxy)phenyl)-6,7-dihydro-5H-benzo[7]annulen-3-yl)-1,3,4-thiadiazole] the value was 79%; for `FCCCN1CC[C@H](Oc2ccc(C3=C(c4ccc(OC(F)(F)F)cc4)CCCc4cc(OC(F)F)ccc43)cc2)C1` [Example 24, (S)-3-(4-(3-(difluoromethoxy)-8-(4-(trifluoromethoxy)phenyl)-6,7-dihydro-5H-benzo[7]annulen-9-yl)phenoxy)-1-(3-fluoropropyl)pyrrolidine], 74%. Same read-out and setting: for `COC(=O)Nc1ccc2c(c1)CCCC(c1ccc(Cl)cc1Cl)=C2c1ccc(O[C@H]2CCN(CCCF)C2)cc1` [Example 25, Methyl (S)-(8-(2,4-dichlorophenyl)-9-(4-((1-(3-fluoropropyl)pyrrolidin-3-yl)oxy)phenyl)-6,7-dihydro-5H-benzo[7]annulen-3-yl)carbamate] the value was 65%; for `O=C(NNC(=S)n1ccnc1)c1ccc2c(c1)CCCC(c1ccc(Cl)cc1Cl)=C2c1ccc(O[C@H]2CCN(CCCF)C2)cc1` [Example 59, (S)-8-(2,4-dichlorophenyl)-9-(4-((1-(3-fluoropropyl)pyrrolidin-3-yl)oxy)phenyl)-N′-(1H-imidazole-1-carbonothioyl)-6,7-dihydro-5H-benzo[7]annulene-3-carbohydrazide], 91%. Still for that read-out and setting: the value for `O=C1OCCN1c1ccc2c(c1)CCCC(c1ccc(Cl)cc1Cl)=C2c1ccc(O[C@H]2CCN(CCCF)C2)cc1` [Example 40, (S)-3-(8-(2,4-dichlorophenyl)-9-(4-((1-(3-fluoropropyl)pyrrolidin-3-yl)oxy)phenyl)-6,7-dihydro-5H-benzo[7]annulen-3-yl)oxazolidin-2-one] was 66%.

For `O=C(Nc1nn[nH]n1)c1ccc2c(c1)CCCC(c1ccc(Cl)cc1Cl)=C2c1ccc(O[C@H]2CCN(CCCF)C2)cc1` [Example 17, (S)-8-(2,4-dichlorophenyl)-9-(4-((1-(3-fluoropropyl)pyrrolidin-3-yl)oxy)phenyl)-N-(2H-tetrazol-5-yl)-6,7-dihydro-5H-benzo[7]annulene-3-carboxamide], the “% Degradation At 3 μM” value is recorded as 84%.

Source of the values: patent US12545640B2, “Substituted 6,7-dihydro-5H-benzo[7]annulene compounds, processes for their preparation and therapeutic uses thereof” (SANOFI, priority 2019, dated 2026).
